Test results taken from article PMC6273627, “Extended N-Arylsulfonylindoles as 5-HT6 Receptor Antagonists: Design, Synthesis & Biological Evaluation” (Molecules, 2016).
Where “and” joins values, the source holds several entries; their conditions need not be identical. Identical values can stand only once. Like-named read-outs stand apart in the source and are kept apart here.

How the values were obtained:
[1] = target: T1, cloned human 5-HT6-expressing cell line (HTS111RTA) (Homo sapiens, UniProt P50406); experiment: intracellular calcium mobilization assay (antagonism of 2-Me 5-HT); type: cell-based; details: for IC50: antagonism of 2-Me-5-HT (500 nM) intracellular calcium mobilization
T1 construct: host or cells: purchased ready-to-assay cell line

5-HT6R = details: cited from earlier work
1H-NMR pKa determination = type: physicochemical; details: D2O solution; 1H-NMR titration in D2O, 298 K, corrected for H2O; piperazine nitrogen; read-out: pKa (pKa2)
Procedure: All NMR spectra were performed on a Bruker Avance III HD-400 MHz spectrometer at 298 K. The ^1H-NMR experiments were acquired using water suppression in order to suppress the residual HDO signal. Solutions of the 3b and 4g 2 mM in D2O were prepared adding acetone 200 μM as an internal standard. The titrations were carried out progressively in a single NMR sample for each compound. The pH was adjusted with 0.1 mol/L of NaOH and 0.1 mol/L HCl, to cover the pH ranges 4.65–9.11 and 5.58–9.46 for 3b and 4g solutions, respectively. […] The chemical shifts (δ ppm) of the piperazine methylene protons were plotted against the pH for both compounds. The pKa were obtained from the inflection point of the resulting sigmoidal curve, for each compound.
The signal to upfield of the doublet of methylene protons of the piperazine ring was used to plot δ ppm vs. pH. In this case, the pKa^D correspond to inflection point in the resulting sigmoidal curve from the plot δ ppm vs. pH, for each compound (Figure 7B,D). […] The pKa value determined in D2O was corrected for H2O using the Krezel et al. equation [59].
The chemical shift is affected by the chemical and, consequently, the magnetic environment. Therefore, the protonation of basic species such as the nitrogen atoms in piperazine ring induce important changes in the chemical environment in the adjacent proton groups. […]

T1 sequence (P50406 whole entry): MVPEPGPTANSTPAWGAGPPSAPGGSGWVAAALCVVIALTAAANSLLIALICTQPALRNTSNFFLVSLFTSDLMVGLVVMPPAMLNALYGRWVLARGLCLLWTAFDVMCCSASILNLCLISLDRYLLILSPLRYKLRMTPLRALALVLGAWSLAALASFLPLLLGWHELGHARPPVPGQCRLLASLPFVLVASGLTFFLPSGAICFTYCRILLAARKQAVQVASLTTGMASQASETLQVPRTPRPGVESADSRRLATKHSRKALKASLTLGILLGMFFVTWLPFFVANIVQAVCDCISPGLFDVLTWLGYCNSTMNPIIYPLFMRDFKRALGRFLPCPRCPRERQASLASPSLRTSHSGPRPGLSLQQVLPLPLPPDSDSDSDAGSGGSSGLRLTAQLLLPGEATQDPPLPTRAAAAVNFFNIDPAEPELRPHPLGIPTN

Row | Compound | melting point | other results
1 | Cc1[nH]c2ccc(O)cc2c1CCN [2-Me 5-HT, reference compound] |  | EC50 [1]: 119 nM; pKi (5-HT6R; Figure 1, known ligands): 7.34
2 | COc1ccccc1N1CCNCC1 [2-methoxyphenyl piperazine] |  | 5-HT6R affinity compared with the compounds here reported (5-HT6R): substantially lower affinity
3 | O=C(CBr)c1c[nH]c2ccccc12 [Compound 1] | 160.3 to 161 °C | pKi (5-HT6R; Table 2 reference value): 8.70 [1]
4 | Cc1ccc(S(=O)(=O)n2cc(C(=O)CN3CCN(c4ccccn4)CC3)c3ccccc32)cc1 [Compound 3a, 2-(4-(Pyridyl-2-yl)piperazin-1-yl)-1-(1-tosyl-1H-indol-3-yl)ethanone] | 74.9 to 75.7 °C and 75 to 76 °C | 
5 | COc1ccccc1N1CCN(CC(=O)c2cn(S(=O)(=O)c3ccc(C)cc3)c3ccccc23)CC1 [Compound 3b, 2-(4-(2-Methoxyphenyl)piperazin-1-yl)-1-(1-tosyl-1H-indol-3-yl)ethanone] | 132.3 to 133.6 °C and 132 to 134 °C | pKa (1H-NMR pKa determination): 5.72
6 | Cc1ccc(S(=O)(=O)n2cc(C(=O)CN3CCN(c4ncccn4)CC3)c3ccccc32)cc1 [Compound 3c, 2-(4-(Pyrimidin-2-yl)piperazin-1-yl)-1-(1-tosyl-1H-indol-3-yl)ethanone] | 133 to 134 °C | 
7 | O=C(CN1CCN(c2ncccn2)CC1)c1cn(S(=O)(=O)c2ccc(Cl)cc2)c2ccccc12 [Compound 3d, 1-(1-(4-Chlorophenylsulfonyl)-1H-indol-3-yl)-2-(4-(pyrimidin-2-yl)piperazin-1-yl)ethanone] | 168 to 169 °C | 
8 | O=C(CN1CCN(c2ncccn2)CC1)c1cn(S(=O)(=O)c2ccc(F)cc2)c2ccccc12 [Compound 3e, 1-(1-(4-Fluorophenylsulfonyl)-1H-indol-3-yl)-2-(4-(pyrimidin-2-yl)piperazin-1-yl)ethanone] | 145 to 146 °C | 
9 | O=C(CN1CCN(c2ccccn2)CC1)c1cn(S(=O)(=O)c2ccc(I)cc2)c2ccccc12 [Compound 3f, 1-(1-(4-Iodophenylsulfonyl)-1H-indol-3-yl)-2-(4-(pyridin-2-yl)piperazin-1-yl)ethanone] | 179 to 180 °C | 
10 | COc1ccccc1N1CCN(CC(=O)c2cn(S(=O)(=O)c3ccc(I)cc3)c3ccccc23)CC1 [Compound 3g, 1-(1-(4-Iodophenylsulfonyl)-1H-indol-3-yl)-2-(4-(2-methoxyphenyl)piperazin-1-yl)ethanone] | 182 to 183 °C | 
11 | O=C(CN1CCN(c2ncccn2)CC1)c1cn(S(=O)(=O)c2ccc(I)cc2)c2ccccc12 [Compound 3h, 1-(1-(4-Iodophenylsulfonyl)-1H-indol-3-yl)-2-(4-(pyrimidin-2-yl)piperazin-1-yl)ethanone] | 184 to 185 °C | 
12 | O=C(CN1CCN(c2ccccn2)CC1)c1cn(S(=O)(=O)c2cccc3ccccc23)c2ccccc12 [Compound 3i, 1-(1-(Naphthalen-1-ylsulfonyl)-1H-indol-3-yl)-2-(4-(pyridin-2-yl)piperazin-1-yl)ethanone] | 76 to 77 °C | 
13 | COc1ccccc1N1CCN(CC(=O)c2cn(S(=O)(=O)c3cccc4ccccc34)c3ccccc23)CC1 [Compound 3j, 2-(4-(2-Methoxyphenyl)piperazin-1-yl)-1-(1-(naphthalen-1-ylsulfonyl)-1H-indol-3-yl)ethanone] | 74 to 75 °C | 
14 | O=C(CN1CCN(c2ncccn2)CC1)c1cn(S(=O)(=O)c2cccc3ccccc23)c2ccccc12 [Compound 3k, 1-(1-(Naphthalen-1-ylsulfonyl)-1H-indol-3-yl)-2-(4-(pyrimidin-2-yl)piperazin-1-yl)ethanone] | 88 to 89 °C | 
15 | Cc1ccc(S(=O)(=O)n2cc(C(O)CN3CCN(c4ccccn4)CC3)c3ccccc32)cc1 (stereo not drawn) [Compound 4a, 2-(4-(Pyridin-2-yl)piperazin-1-yl)-1-(1-tosyl-1H-indol-3-yl)ethanol] | 72.4 to 73.9 °C and 72 to 74 °C | IC50 [1]: 783 nM
16 | COc1ccccc1N1CCN(CC(O)c2cn(S(=O)(=O)c3ccc(C)cc3)c3ccccc23)CC1 (stereo not drawn) [Compound 4b, 2-(4-(2-Methoxyphenyl)piperazin-1-yl)-1-(1-tosyl-1H-indol-3-yl)ethanol] | 86.3 to 86.9 °C and 86 to 87 °C | 
17 | Cc1ccc(S(=O)(=O)n2cc(C(O)CN3CCN(c4ncccn4)CC3)c3ccccc32)cc1 (stereo not drawn) [Compound 4c, 2-(4-(Pyrimidin-2-yl)piperazin-1-yl)-1-(1-tosyl-1H-indol-3-yl)ethanol] | 81 to 82 °C | 

Row | Compound | melting point | other results
18 | O=S(=O)(c1ccc(Cl)cc1)n1cc(C(O)CN2CCN(c3ncccn3)CC2)c2ccccc21 (stereo not drawn) [Compound 4d, 1-(1-(4-Chlorophenylsulfonyl)-1H-indol-3-yl)-2-(4-(pyrimidin-2-yl)piperazin-1-yl)ethanol] | 76 to 77 °C and 81 to 82 °C | 
19 | O=S(=O)(c1ccc(F)cc1)n1cc(C(O)CN2CCN(c3ncccn3)CC2)c2ccccc21 (stereo not drawn) [Compound 4e, 1-(1-(4-Fluorophenylsulfonyl)-1H-indol-3-yl)-2-(4-(pyrimidin-2-yl)piperazin-1-yl)ethanol] | 72 to 73 °C | 
20 | O=S(=O)(c1ccc(I)cc1)n1cc(C(O)CN2CCN(c3ccccn3)CC2)c2ccccc21 (stereo not drawn) [Compound 4f, 1-(1-(4-Iodophenylsulfonyl)-1H-indol-3-yl)-2-(4-(pyridin-2-yl)piperazin-1-yl)ethanol] | 157 to 158 °C | IC50 [1]: 24600 nM
21 | COc1ccccc1N1CCN(CC(O)c2cn(S(=O)(=O)c3ccc(I)cc3)c3ccccc23)CC1 (stereo not drawn) [Compound 4g, 1-(1-(4-Iodophenylsulfonyl)-1H-indol-3-yl)-2-(4-(2-methoxyphenyl)piperazin-1-yl)ethanol] | 109 to 110 °C | inhibition of 2-Me-5HT-induced Ca2+ mobilization [1]: strong inhibition; IC50 [1]: 204 nM; pKa (1H-NMR pKa determination): 6.69
22 | O=S(=O)(c1ccc(I)cc1)n1cc(C(O)CN2CCN(c3ncccn3)CC2)c2ccccc21 (stereo not drawn) [Compound 4h, 1-(1-(4-Iodophenylsulfonyl)-1H-indol-3-yl)-2-(4-(pyrimidin-2-yl)piperazin-1-yl)ethanol] | 171 to 172 °C | IC50 [1]: 75 nM
23 | O=S(=O)(c1cccc2ccccc12)n1cc(C(O)CN2CCN(c3ccccn3)CC2)c2ccccc21 (stereo not drawn) [Compound 4i, 1-(1-(Naphthalen-1-ylsulfonyl)-1H-indol-3-yl)-2-(4-(pyridin-2-yl)piperazin-1-yl)ethanol] | 80 to 81 °C | IC50 [1]: 399 nM
24 | COc1ccccc1N1CCN(CC(O)c2cn(S(=O)(=O)c3cccc4ccccc34)c3ccccc23)CC1 (stereo not drawn) [Compound 4j, 2-(4-(2-Methoxyphenyl)piperazin-1-yl)-1-(1-(naphthalen-1-ylsulfonyl)-1H-indol-3-yl)ethanol] |  | inhibition of 2-Me-5HT-induced Ca2+ mobilization [1]: strong inhibition; IC50 [1]: 32 nM
25 | O=S(=O)(c1cccc2ccccc12)n1cc(C(O)CN2CCN(c3ncccn3)CC2)c2ccccc21 (stereo not drawn) [Compound 4k, 1-(1-(Naphthalen-1-ylsulfonyl)-1H-indol-3-yl)-2-(4-(pyrimidin-2-yl)piperazin-1-yl)ethanol] | 82 to 83 °C | IC50 [1]: 688 nM
26 | COc1ccc(S(=O)(=O)n2cc(C(O)CN3CCOCC3)c3ccccc32)cc1 (stereo not drawn) [Compound 4l, 1-(1-(4-Methoxyphenylsulfonyl)-1H-indol-3-yl)-2-morpholinoethanol] | 149 to 152 °C | 
27 | O=S(=O)(c1ccc(F)cc1)n1cc(C2=CCCNC2)c2ccccc21 [III] |  | pKi (5-HT6R; Figure 1, known ligands): 8.70
28 | CN1CCC(c2cn(S(=O)(=O)c3ccc(F)cc3)c3ccccc23)C1 (stereo not drawn) [II] |  | pKi (5-HT6R; Figure 1, known ligands): 8.70
29 | CC(C)c1ccc(S(=O)(=O)n2cc(N3CCN(C)CC3)c3ccccc32)cc1 [IV] |  | pKi (5-HT6R; Figure 1, known ligands): 8.47
30 | COc1ccc2c(c1)c(CCN(C)C)cn2S(=O)(=O)c1ccccc1 [I] |  | pKi (5-HT6R; Figure 1, known ligands): 8.64
31 | CCN(CC)C(=O)[C@@H]1C=C2c3cccc4[nH]cc(c34)C[C@H]2N(C)C1 [LSD] |  | pKi (5-HT6R; Figure 1, known ligands): 8.94
32 | CN1CC(Cl)=C(c2cn(S(=O)(=O)c3ccccc3)c3ccccc23)C1 [VI] |  | pKi (5-HT6R; Figure 1, known ligands): 8.57
33 | CN1CCC[C@@H]1Cc1cn(S(=O)(=O)c2ccccc2)c2ccccc12 [V] |  | pKi (5-HT6R; Figure 1, known ligands): 9.52
